# Earlier results, collected in publication PMC7385171, “Molecular engineering of safe and efficacious oral basal insulin” (Nature Communications, 2020).
# Details: man, 8-week study; oral for the analogue, SC for insulin glargine
substance,measurement,value
insulin glargine,coefficient of variation of fasting plasma glucose,17.5%
